Data reported in patent publication US5081152A, “Azulene derivatives as thromboxane A2 and prostaglandin endoperoxide receptor antagonist” (Kotobuki Seiyaku Co., Ltd., priority 1989, dated 1992).
Counter-ions that a name gives are not always drawn.

The molecules below were run against T1, Thromboxane A2 receptor (Rattus norvegicus, UniProt P34978) (assay: Thromboxane A2 receptor antagonistic action (inhibitory action of U-46619-induced contractions of rat aortic strips)). Settings: isolated helical strips of rat aorta precontracted with 3×10^-8 M U-46619; read-out: IC50 (the concentrations which inhibited the contraction by 50%).
T1 sequence (P34978 1-341): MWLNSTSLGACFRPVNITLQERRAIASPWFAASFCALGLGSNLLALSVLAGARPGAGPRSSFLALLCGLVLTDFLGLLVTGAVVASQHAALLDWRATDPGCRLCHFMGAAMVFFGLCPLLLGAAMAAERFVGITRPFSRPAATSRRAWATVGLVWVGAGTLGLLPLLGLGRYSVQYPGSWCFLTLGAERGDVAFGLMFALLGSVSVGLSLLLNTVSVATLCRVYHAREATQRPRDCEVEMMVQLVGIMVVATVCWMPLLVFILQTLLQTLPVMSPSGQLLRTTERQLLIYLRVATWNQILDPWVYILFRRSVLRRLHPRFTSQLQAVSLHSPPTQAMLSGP
Assay type: cell-based

| Structure (SMILES) | IC50 [nM] |
| --- | --- |
| CC(C)c1ccc2c(C[C@H](C)CCNS(=O)(=O)c3ccccc3)cc(C(=O)O)c-2cc1 [Compound 56, 6-isopropyl-3-[(2S)-methyl-4-(benzenesulfonylamino)butyl]-azulene-1-carboxylic acid] | 160 |
| CC(C)c1ccc2c(C[C@@H](C)CCNS(=O)(=O)c3ccccc3)cc(C(=O)O)c-2cc1 [Compound 57, 6-isopropyl-3-[(2R)-methyl-4-(benzenesulfonylamino)butyl]-azulene-1-carboxylic acid] | 36 |
| CC(C)c1ccc2c(CC[C@@H](C)CNS(=O)(=O)c3ccccc3)cc(C(=O)O)c-2cc1 [Compound 58, 6-isopropyl-3-[(3R)-methyl-4-(benzenesulfonylamino)butyl]-azulene-1-carboxylic acid] | 35 |
| CC(C)c1ccc2c(CC[C@H](C)CNS(=O)(=O)c3ccccc3)cc(C(=O)O)c-2cc1 [Compound 59, 6-isopropyl-3-[(3S)-methyl-4-(benzenesulfonylamino)butyl]-azulene-1-carboxylic acid] | 16 |
| CC(C)c1ccc2c(CCC[C@H](C)NS(=O)(=O)c3ccccc3)cc(C(=O)O)c-2cc1 [Compound 62, 6-isopropyl-3-[(4S)-(benzenesulfonylamino)pentyl]-azulene-1-carboxylicacid] | 50 |
| CC(C)c1ccc2c(CCC[C@@H](C)NS(=O)(=O)c3ccccc3)cc(C(=O)O)c-2cc1 [Compound 63, 6-isopropyl-3-[(4R)-(benzenesulfonylamino)pentyl]-azulene-1-carboxylicacid] | 420 |
| CC(C)c1ccc2c(CC(C)(C)CCNS(=O)(=O)c3ccccc3)cc(C(=O)O)c-2cc1 [Compound 64, 6-isopropyl-3-[2,2-dimethyl-4-(benzenesulfonylamino)butyl]-azulene-1-carboxylic acid] | 690 |
| CC(C)c1ccc2c(CCC(C)(C)CNS(=O)(=O)c3ccccc3)cc(C(=O)O)c-2cc1 [Compound 65, 6-isopropyl-3-[3,3-dimethyl-4-(benzenesulfonylamino)butyl]-azulene-1-carboxylic acid] | 50 |
| CC(C)c1ccc2c(C/C=C\CNS(=O)(=O)c3ccccc3)cc(C(=O)O)c-2cc1 [Compound 68, 6-isopropyl-3-[4-(benzenesulfonylamino)-cis-2-butenyl]-azulene-1-carboxylic acid] | 52 |
| CC(C)c1ccc2c(C/C=C/CNS(=O)(=O)c3ccccc3)cc(C(=O)O)c-2cc1 [Compound 69, 6-isopropyl-3-[4-(benzenesulfonylamino)-trans-2-butenyl]-azulene-1-carboxylic acid] | 460 |
| CC(C)c1ccc2c(CCCCNS(=O)(=O)c3ccccc3)cc(S(=O)(=O)O)c-2cc1 [sodium salt] | 17 |
